In PubChem BioAssay (NCI):
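The compound was tested at five concentrations on cells cultured in 96-well plates, with a 48-hour exposure period. Here, GI50 denotes the concentration required for 50% inhibition of growth. TGI is the concentration that stops growth completely.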

Legend:
Assay in all cases: DTP human tumour cell line panel, 48 h
M14 melanoma = system: M14 melanoma
UACC-257 melanoma = system: UACC-257 melanoma
OVCAR-4 ovarian = system: OVCAR-4 ovarian
CAKI-1 renal = system: CAKI-1 renal
SK-OV-3 ovarian = system: SK-OV-3 ovarian
SF-295 CNS = system: SF-295 CNS
U251 CNS = system: U251 CNS
HL-60(TB) leukemia = system: HL-60(TB) leukemia
NCI-H226 lung = system: NCI-H226 lung
CCRF-CEM leukemia = system: CCRF-CEM leukemia

SMILES	GI50 (M14 melanoma)	TGI (M14 melanoma)	GI50 (UACC-257 melanoma)	TGI (UACC-257 melanoma)	GI50 (OVCAR-4 ovarian)	TGI (OVCAR-4 ovarian)	GI50 (CAKI-1 renal)	TGI (CAKI-1 renal)	GI50 (SK-OV-3 ovarian)	TGI (SK-OV-3 ovarian)	GI50 (SF-295 CNS)	TGI (SF-295 CNS)	GI50 (U251 CNS)	TGI (U251 CNS)	GI50 (HL-60(TB) leukemia)	TGI (HL-60(TB) leukemia)	GI50 (NCI-H226 lung)	TGI (NCI-H226 lung)	GI50 (CCRF-CEM leukemia)	TGI (CCRF-CEM leukemia)
COc1cccc(-c2nc(-c3ccc(NC(=O)C(C)C)cc3)[nH]c2-c2ccnc(Br)c2)c1	3.3 µM	> 100 µM	4.02 µM	> 100 µM	3.54 µM	> 100 µM	2.73 µM	> 100 µM	3.66 µM	> 100 µM	0.273 µM	0.759 µM	2.08 µM	> 100 µM	1.56 µM	5.24 µM	2.53 µM	21.4 µM	2.99 µM	> 100 µM
O=C(Nc1ccc(Cl)cc1)c1cccc(NC2=C(Cl)C(=O)N(Cc3ccccc3)C2=O)c1	14.5 µM	72.8 µM	15 µM	43.3 µM	12.5 µM	34.8 µM	3.5 µM	15.7 µM	29.6 µM	> 100 µM	15.5 µM	61.9 µM	9.92 µM	21.5 µM	4.37 µM	18.9 µM	4.31 µM	21.3 µM	2.73 µM	12.3 µM
COc1cc(/C=C/c2cc(O)c(C(C)=O)c(O)c2)cc2c1O[C@]1(C)CC[C@@H](O)C(C)(C)[C@H]1C2	5.12 µM	49.4 µM	11 µM	72.7 µM	13.5 µM	74.5 µM	4.12 µM	> 100 µM	9.58 µM	79.1 µM	2.92 µM	10.5 µM	3.71 µM	> 100 µM	4.13 µM	23.8 µM	16.8 µM	54.2 µM	4.4 µM	> 100 µM
Cn1cnc([N+](=O)[O-])c1S(=O)(=O)Oc1cccc2ccccc12	3.17 µM	10.2 µM	2.36 µM	6.29 µM	2.03 µM	5.96 µM	1.76 µM	4.07 µM	46.9 µM	> 100 µM	21.2 µM	> 65.3 µM	8.89 µM	34.7 µM	5.34 µM	31.4 µM	3.79 µM	31 µM	1.32 µM	9.3 µM
CCN(CC)/C(SCc1ccccc1)=C(\C(Cl)=C(Cl)Cl)[N+](=O)[O-]	–	29.3 µM	–	31.8 µM	–	44.6 µM	–	73.5 µM	–	> 100 µM	–	> 100 µM	–	49 µM	–	38.9 µM	–	39.1 µM	–	52.2 µM
NC1(C(=O)OCc2ccccc2)CCCC1	–	35.2 µM	–	41.9 µM	–	37.3 µM	–	47.5 µM	–	71.1 µM	–	34.7 µM	–	40.3 µM	–	54.5 µM	–	91.7 µM	–	> 100 µM
